This note sets out measurements from patent US6506766B1 (Abbott Laboratories, priority 1998, dated 2003).

Where only a bound is given, the exact number is not on record here.

The test deals with T1, human progesterone receptor-A [PRA] isoform (Homo sapiens, UniProt P06401).
T1 construct: host or cells: insect SF21 cells (baculovirus)
T1 sequence (P06401 1-769 isoform P06401-2): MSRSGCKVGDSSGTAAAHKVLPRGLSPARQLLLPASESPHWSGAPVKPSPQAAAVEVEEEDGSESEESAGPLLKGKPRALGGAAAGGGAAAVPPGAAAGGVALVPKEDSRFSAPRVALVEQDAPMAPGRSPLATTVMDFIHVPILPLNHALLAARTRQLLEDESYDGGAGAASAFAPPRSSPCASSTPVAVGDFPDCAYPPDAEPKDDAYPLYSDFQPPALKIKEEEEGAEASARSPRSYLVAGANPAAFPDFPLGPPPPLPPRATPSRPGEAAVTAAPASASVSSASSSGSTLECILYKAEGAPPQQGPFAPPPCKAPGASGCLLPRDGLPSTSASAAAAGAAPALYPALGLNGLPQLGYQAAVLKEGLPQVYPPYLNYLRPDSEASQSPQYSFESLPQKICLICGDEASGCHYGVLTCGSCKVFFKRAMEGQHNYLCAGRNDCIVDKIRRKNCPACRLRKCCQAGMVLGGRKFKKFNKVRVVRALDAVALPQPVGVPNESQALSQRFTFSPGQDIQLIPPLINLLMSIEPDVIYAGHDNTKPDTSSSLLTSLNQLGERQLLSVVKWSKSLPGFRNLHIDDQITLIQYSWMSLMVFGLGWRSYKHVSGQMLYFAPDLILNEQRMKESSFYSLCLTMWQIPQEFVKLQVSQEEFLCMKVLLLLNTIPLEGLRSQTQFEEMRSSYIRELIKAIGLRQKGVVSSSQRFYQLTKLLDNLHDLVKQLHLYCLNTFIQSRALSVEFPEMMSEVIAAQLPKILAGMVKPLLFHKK
Put plainly: Radioligand binding with human progesterone receptor cytosol ([3H]-progesterone competition). As to conditions: PRA cytosol expressed in insect SF21 cells, [3H]Prog ~0.8 nM, 4° C. overnight; Ki by Cheng-Prusoff, KL ~4.5 nM; read-out: Ki (nM) PR.
For orientation: Ki means the equilibrium dissociation constant of an inhibitor or competing ligand from its target. Take `COc1cccc2c1-c1ccc3c(c1C(=Cc1ccccc1)O2)C(C)=CC(C)(C)N3` (mixture of isomers) [Example 18, 2,5-Dihydro-10-methoxy-2,2,4-trimethyl-5-(phenylmethylene)-1H-[1]benzopyrano[3,4-f]quinoline]: the Ki came out at 1040 nM.

For the compound `COc1cccc2c1-c1ccc3c(c1C(C1C=CCCCC1)O2)C(C)=CC(C)(C)N3` (mixture of isomers) [Example 144], the Ki was not below 10000 nM.

As to `COc1cccc2c1-c1ccc3c(c1C(C1C=CCC1)O2)C(C)=CC(C)(C)N3` (racemic) [Example 136], the Ki came to 2700 nM.

On to `C=CCC1Oc2ccc(OC(=O)CCC(=O)N(C)C)c(Cl)c2-c2ccc3c(c21)C(C)=CC(C)(C)N3` (racemic) [Example 421, (+/−)2,5-Dihydro-9-(4-N,N-dimethylamino-4-oxo-butanoyloxy)-10-chloro-2,2,4-trimethyl-5-allyl-1H-[1]benzopyrano[3,4-f]quinoline], for which the Ki was found to be 11.6 nM.

`COc1cccc2c1-c1ccc3c(c1C(c1cc(Cl)cc(Cl)c1)O2)C(C)=CC(C)(C)N3` (single isomer, unassigned; (+)) [Example 33, (+)-5-(3,5-Dichlorophenyl)-2,5-dihydro-10-methoxy-2,2,4-trimethyl-1H-[1]benzopyrano[3,4-f]quinoline]: the Ki worked out at 8320 nM.

With `COc1cccc2c1-c1ccc3c(c1C(c1cc(Cl)cc(Cl)c1)O2)C(C)=CC(C)(C)N3` (single isomer, unassigned; (-)) [Example 32, (−)-5-(3,5-Dichlorophenyl)-2,5-dihydro-10-methoxy-2,2,4-trimethyl-1H-[1]benzopyrano[3,4-f]quinoline], the Ki turned out to be 1560 nM.

Regarding `CCC1([C@@H]2Oc3ccc(O)c(OC)c3-c3ccc4c(c32)C(C)=CC(C)(C)N4)CC=CCC1` (single isomer, unassigned; (-)) [Example 263], the Ki came out at 59.6 nM.

`COc1cccc2c1-c1ccc3c(c1C(c1cc(Cl)cc(Cl)c1)O2)C(C)=CC(C)(C)N3` (centres unmarked) [Example 19, 5-(3,5-Dichlorophenyl)-2,5-dihydro-10-methoxy-2,2,4-trimethyl-1H-[1]benzopyrano[3,4-f]quinoline]: the Ki was found to be 4970 nM.

Take `CCCCC1Oc2cccc(OC)c2-c2ccc3c(c21)C(C)=CC(C)(C)N3` (centres unmarked) [Example 20, 5-Butyl-2,5-dihydro-10-methoxy-2,2,4-trimethyl-1H-[1]benzopyrano[3,4-f]quinoline]: the Ki was found to be 1680 nM.

For the compound `COc1cccc2c1-c1ccc3c(c1C(CC(C)=O)O2)C(C)=CC(C)(C)N3` (centres unmarked) [Example 45, 1-(2,5-Dihydro-10-methoxy-2,2,4-trimethyl-1H-[1]benzopyrano[3,4-f]quinolin-5-yl)-2-propanone], the inhibitory constant (Ki) is not below 10000 nM.

Take `COc1cccc2c1-c1ccc3c(c1C(Cc1ccccc1)O2)C(C)=CC(C)(C)N3` (centres unmarked) [Example 53, 2,5-Dihydro-10-methoxy-2,2,4-trimethyl-5-(phenylmethyl)-1H-[1]benzopyrano[3,4-f]quinoline]: the Ki stood at 2910 nM.

For the compound `COc1cccc2c1-c1ccc3c(c1C(C)O2)C(C)=CC(C)(C)N3` (centres unmarked) [Example 57, 2,5-Dihydro-10-methoxy-2,2,4,5-tetramethyl-1H-[1]benzopyrano[3,4-f]quinoline], the Ki stood at 4280 nM.

With `COc1cccc2c1-c1ccc3c(c1C(CCN(C)C)O2)C(C)=CC(C)(C)N3` (centres unmarked) [Example 64, 2,5-Dihydro-10-methoxy-2,2,4,N,N-pentamethyl-1H-[1]benzopyrano[3,4-f]quinoline5-ethanamine], the Ki was determined as 1670 nM.

Turning to `COc1cccc2c1-c1ccc3c(c1C(CCCO)O2)C(C)=CC(C)(C)N3` (centres unmarked) [Example 69, 2,5-Dihydro-10-methoxy-2,2,4-trimethyl-1H-[1]benzopyrano[3,4-f]quinoline-5-propanol], the Ki was 17300 nM.

As for `C#CCOc1cccc(C2Oc3cccc(OC)c3-c3ccc4c(c32)C(C)=CC(C)(C)N4)c1` (centres unmarked) [Example 92, 2,5-Dihydro-10-methoxy-2,2,4-trimethyl-5-[3-(2-propynyloxy)phenyl]-1H-[1]benzopyrano[3,4-f]quinoline], the Ki is not below 10000 nM.

On to `CNc1cc(C)cc(C2Oc3cccc(OC)c3-c3ccc4c(c32)C(C)=CC(C)(C)N4)c1` (centres unmarked) [Example 114, 3-(2,5-Dihydro-10-methoxy-2,2,4-trimethyl-1H-[1]benzopyrano[3,4-f]quinolin-5-methyl)-5,N-dimethylbenzenamine], for which the Ki was not below 10000 nM.

On to `C=CCNc1cccc(C2Oc3cccc(OC)c3-c3ccc4c(c32)C(C)=CC(C)(C)N4)c1` (centres unmarked) [Example 117, 3-(2,5-Dihydro-10-methoxy-2,2,4-trimethyl-1H-[1]benzopyrano[3,4-f]quinolin-5-yl)-N-(2-propenyl)benzenamine], for which the Ki is not below 10000 nM.

As for `COc1cccc2c1-c1ccc3c(c1C(C1C=CCCCCC1)O2)C(C)=CC(C)(C)N3` (centres unmarked) [Example 143, 2,5-Dihydro-10-methoxy-5-(3-cyclooctenyl)-2,2,4-trimethyl-1H-[1]benzopyrano[3,4f]quinoline], the Ki was 8100 nM.

For the compound `COc1cccc2c1-c1ccc3c(c1C(CC1=CCCCC1)O2)C(C)=CC(C)(C)N3` (centres unmarked) [Example 145, 2,5-Dihydro-10-methoxy-5-(1-cyclohexenylmethyl)-2,2,4-trimethyl-1H-[1]benzopyrano[3,4-f]quinoline], the Ki was not below 10000 nM.

Turning to `C=C(Br)CC1Oc2cccc(OC)c2-c2ccc3c(c21)C(C)=CC(C)(C)N3` (centres unmarked) [Example 147, 2,5-Dihydro-10-methoxy-5-(2-bromo-3-propenyl)-2,2,4-trimethyl-1H-[1]benzopyrano[3,4-f]quinoline], the Ki came to 9300 nM.

Regarding `C=CC(=C)CC1Oc2cccc(OC)c2-c2ccc3c(c21)C(C)=CC(C)(C)N3` (centres unmarked) [Example 172], the inhibitory constant (Ki) worked out at 9900 nM.

With `C=C(CC1Oc2cccc(OC)c2-c2ccc3c(c21)C(C)=CC(C)(C)N3)C(=O)OC` (centres unmarked) [Example 173, 2,5-Dihydro-10-methoxy-5-(2-carbomethoxy-3-propenyl)-2,2,4-trimethyl-1H-[1]benzopyrano[3,4-f]quinoline], the Ki is not below 10000 nM.

As for `COc1cccc2c1-c1ccc3c(c1C(CC=C1CCCCCC1)O2)C(C)=CC(C)(C)N3` (centres unmarked) [Example 189, 2,5-Dihydro-10-methoxy-5-(2-cycloheptylidenylethyl)-2,2,4-trimethyl-1H-[1]benzopyrano[3,4-f]quinoline], the Ki came out at 1700 nM.

With `COc1cccc2c1-c1ccc3c(c1C(CCO)O2)C(C)=CC(C)(C)N3` (centres unmarked) [Example 199, 2,5-Dihydro-10-methoxy-5-(2-hydroxyethyl)-2,2,4-trimethyl-1H-[1]benzopyrano[3,4-f]quinoline], the Ki is not below 10000 nM.

Regarding `CCOC(=O)C1Oc2cccc(OC)c2-c2ccc3c(c21)C(C)=CC(C)(C)N3` (centres unmarked) [Example 208, 2,5-Dihydro-10-methoxy-5-(carboethoxy)-2,2,4-trimethyl-1H-[1]benzopyrano[3,4-f]quinoline], the inhibition constant (Ki) was 970 nM.

Regarding `COc1cccc2c1-c1ccc3c(c1C(C1CCCC1)O2)C(C)=CC(C)(C)N3` (centres unmarked) [Example 209, 2,5-Dihydro-10-methoxy-5-(cyclopentyl)-2,2,4-trimethyl-1H-[1]benzopyrano[3,4-f]quinoline], the Ki worked out at 5460 nM.

`COc1cccc2c1-c1ccc3c(c1C(C1CCCCC1)O2)C(C)=CC(C)(C)N3` (centres unmarked) [Example 212, 2,5-Dihydro-10-methoxy-5-(cyclohexyl)-2,2,4-trimethyl-1H-[1]benzopyrano[3,4-f]quinoline]: the Ki was not below 10000 nM.

Regarding `CC1=CC(C)(C)Nc2ccc3c(c21)[C@H]([C@@H]1C=CCC1)Oc1ccc(O)c(Cl)c1-3` [Example 221, (−)2,5(S)-Dihydro-9-hydroxy-10-chloro-2,2,4-trimethyl-5-(3S-cyclopentenyl)-1H-[1]benzopyrano[3,4-f]quinoline], the Ki stood at 4.2 nM.

In the case of `CC1=CC(C)(C)Nc2ccc3c(c21)C(c1ccccc1)Oc1ccc2c(c1-3)OCO2` (centres unmarked) [Example 227, 9-10-Methylenedioxy-5-phenyl-2,2,4-trimethyl-1H-2,5-dihydro-[1]benzopyrano[3,4-f]quinoline], the Ki was 1930 nM.

As to `COc1c(O)ccc2c1-c1ccc3c(c1C(c1ccc(F)c(F)c1)O2)C(C)=CC(C)(C)N3` (centres unmarked) [Example 254, 2,5-Dihydro-9-hydroxy-10-methoxy-2,2,4-trimethyl-5-(3,4-difluorophenyl)-1H-[1]benzopyrano[3,4-f]quinoline], the Ki is 1820 nM.

Consider `COc1c(O)ccc2c1-c1ccc3c(c1C(c1cccs1)O2)C(C)=CC(C)(C)N3` (centres unmarked) [Example 274, 2,5-Dihydro-9-hydroxy-10-methoxy-2,2,4-trimethyl-5-(2-thienyl)-1H-[1]benzopyrano[3,4-f]quinoline], for which the inhibitory constant (Ki) was found to be 386 nM.

With `C=CCOc1ccc2c(c1OC)-c1ccc3c(c1C(CC=C)O2)C(C)=CC(C)(C)N3` (centres unmarked) [Example 293, 10-Methoxy-9-(3-propenyloxy)-5-(3-propenyl)-2,2,4-trimethyl-1H-2,5-dihydro[1]benzopyrano[3,4-f]quinoline], the Ki came to 3740 nM.
